Reference: patent US9994546B2, “Cyclopropylamines as LSD1 inhibitors” (Incyte Corporation, priority 2014, dated 2018)
pIC50: −log10 of the molar value.

These compounds were tested against LSD-1 enzyme (Homo sapiens (Human), UniProt O60341) (assay: LANCE LSD1/KDM1A demethylase assay (LSD1 histone demethylase biochemical assay)). Conditions: 1 nM LSD-1 enzyme, 1 hour preincubation at 25° C., 0.4 μM biotin-labeled Histone H3 peptide substrate.
Procedure: LANCE LSD1/KDM1A demethylase assay—10 μL of 1 nM LSD-1 enzyme (ENZO BML-SE544-0050) in the assay buffer (50 mM Tris, pH 7.5, 0.01% Tween-20, 25 mM NaCl, 5 mM DTT) were preincubated for 1 hour at 25° C. with 0.8 μL compound/DMSO dotted in black 384 well polystyrene plates. […] After stopping the reactions plates were incubated for 30 minutes and read on a PHERAstar FS plate reader (BMG Labtech).
For N#CCC1(N2CCC(CN[C@@H]3C[C@H]3c3ccccc3)CC2)CN(C(=O)c2cccc(F)c2)C1 (relative stereo) [Example 47, [1-(3-Fluorobenzoyl)-3-(4-{[(trans-2-phenylcyclopropyl)amino]methyl}piperidin-1-yl)azetidin-3-yl]acetonitrile], the pIC50 was ≥ 7.00.
With N#CCC1(N2CCC(CN[C@@H]3C[C@H]3c3ccccc3)CC2)CN(C(=O)c2ccc(F)cc2)C1 (relative stereo) [Example 48, [1-(4-Fluorobenzoyl)-3-(4-{[(trans-2-phenylcyclopropyl)amino]methyl}piperidin-1-yl)azetidin-3-yl]acetonitrile] the pIC50 was ≥ 7.00.
In the case of CN1CC(CC#N)(N2CCC(CN[C@@H]3C[C@H]3c3ccccc3)CC2)C1 (relative stereo) [Example 49, [1-Methyl-3-(4-{[(trans-2-phenylcyclopropyl)amino]methyl}piperidin-1-yl)azetidin-3-yl]acetonitrile], the pIC50 was ≥ 7.00.
In the case of O=C(O)CC1(N2CCC(CN[C@@H]3C[C@H]3c3ccccc3)CC2)CNC1 (relative stereo) [Example 50, [3-(4-{[(trans-2-Phenylcyclopropyl)amino]methyl}piperidin-1-yl)azetidin-3-yl]acetic acid], the pIC50 was ≥ 7.00.
In the case of CNC(=O)CC1(N2CCC(CN[C@@H]3C[C@H]3c3ccccc3)CC2)CNC1 (relative stereo) [Example 51, N-Methyl-2-(3-(4-((trans-2-phenylcyclopropylamino)methyl)piperidin-1-yl)azetidin-3-yl)acetamide], the pIC50 was ≥ 7.00.
With CN(C)C(=O)CC1(N2CCC(CN[C@@H]3C[C@H]3c3ccccc3)CC2)CNC1 (relative stereo) [Example 52, N,N-Dimethyl-2-(3-(4-((trans-2-phenylcyclopropylamino)methyl)piperidin-1-yl)azetidin-3-yl)acetamide] the pIC50 was ≥ 7.00.
For C[C@H](NC(=O)c1cc(F)c(N2CC(CC#N)(N3CC(CNC4CC4c4ccccc4)C3)C2)cc1F)C(F)(F)F (stereo partly drawn) [Example 27, 4-(3′-(Cyanomethyl)-3-{[(trans-2-phenylcyclopropyl)amino]methyl}-1,3′-biazetidin-1′-yl)-2,5-difluoro-N-[(1S)-2,2,2-trifluoro-1-methylethyl]benzamide], the pIC50 was ≥ 7.00.
For N#CC1(c2ccccc2)CCC(N2CC(CNC3CC3c3ccccc3)C2)CC1 (stereo not drawn) [Example 30, 1-Phenyl-4-(3-{[(trans-2-phenylcyclopropyl)amino]methyl}azetidin-1-yl)cyclohexanecarbonitrile], the pIC50 was ≥ 7.00.
With O=C(O)CC1(N2CCC(CN[C@@H]3C[C@H]3c3ccccc3)(Cc3ccc(F)cc3)CC2)CCC1 [Example 53, {1-[4-(4-fluorobenzyl)-4-({[(1R,2S)-2-phenylcyclopropyl]amino}methyl)piperidin-1-yl]cyclobutyl}acetic acid] the pIC50 was ≥ 7.00.
For COCC1(CN[C@@H]2C[C@H]2c2ccccc2)CCN(C2(CC(=O)O)CCC2)CC1 [Example 54, {1-[4-(methoxymethyl)-4-({[(1R,2S)-2-phenylcyclopropyl]amino}methyl)piperidin-1-yl]cyclobutyl}acetic acid], the pIC50 was ≥ 7.00.
CC1(CN[C@@H]2C[C@H]2c2ccccc2)CCN(C2(CC(=O)O)CCC2)CC1 [Example 55, {1-[4-methyl-4-({[(1R,2S)-2-phenylcyclopropyl]amino}methyl)piperidin-1-yl]cyclobutyl}acetic acid] was tested, and the pIC50 was ≥ 7.00.
For CN(C)C(=O)CC1(N2CCC(C)(CN[C@@H]3C[C@H]3c3ccccc3)CC2)CCC1 [Example 56, N,N-dimethyl-2-{1-[4-methyl-4-({[(1R,2S)-2-phenylcyclopropyl]amino}methyl)piperidin-1-yl]cyclobutyl}acetamide], the pIC50 was ≥ 7.00.
In the case of CNC(=O)CC1(N2CCC(C)(CN[C@@H]3C[C@H]3c3ccccc3)CC2)CCC1 [Example 57, N-methyl-2-{1-[4-methyl-4-({[(1R,2S)-2-phenylcyclopropyl]amino}methyl)piperidin-1-yl]cyclobutyl}acetamide], the pIC50 was ≥ 7.00.
In the case of CS(=O)(=O)N1CC(CC#N)(N2CCC(N[C@@H]3C[C@H]3c3ccccc3)CC2)C1 [Example 58, [1-(methylsulfonyl)-3-(4-{[(1R,2S)-2-phenylcyclopropyl]amino}piperidin-1-yl)azetidin-3-yl]acetonitrile], the pIC50 was ≥ 7.00.
In the case of CN1CC(CC#N)(N2CCC(N[C@@H]3C[C@H]3c3ccccc3)CC2)C1 [Example 59, [1-methyl-3-(4-{[(1R,2S)-2-phenylcyclopropyl]amino}piperidin-1-yl)azetidin-3-yl]acetonitrile], the pIC50 was ≥ 7.00.
For N#CCC1(N2CCC(N[C@@H]3C[C@H]3c3ccccc3)CC2)CNC1 [Example 60, [3-(4-{[(1R,2S)-2-phenylcyclopropyl]amino}piperidin-1-yl)azetidin-3-yl]acetonitrile], the pIC50 was ≥ 7.00.
With N#CCC1(N2CCC(N[C@H]3C[C@@H]3c3ccccc3)CC2)CNC1 [Example 61, [3-(4-{[(1S,2R)-2-phenylcyclopropyl]amino}piperidin-1-yl)azetidin-3-yl]acetonitrile] the pIC50 was ≥ 7.00.
In the case of CCS(=O)(=O)N1CC(CC#N)(N2CCC(N[C@@H]3C[C@H]3c3ccccc3)CC2)C1 [Example 62, [1-(ethylsulfonyl)-3-(4-{[(1R,2S)-2-phenylcyclopropyl]amino}piperidin-1-yl)azetidin-3-yl]acetonitrile], the pIC50 was ≥ 7.00.
In the case of CN(C)S(=O)(=O)N1CC(CC#N)(N2CCC(N[C@@H]3C[C@H]3c3ccccc3)CC2)C1 [Example 63, 3-(cyanomethyl)-N,N-dimethyl-3-(4-{[(1R,2S)-2-phenylcyclopropyl]amino}piperidin-1-yl)azetidine-1-sulfonamide], the pIC50 was ≥ 7.00.
With CNS(=O)(=O)N1CC(CC#N)(N2CCC(N[C@@H]3C[C@H]3c3ccccc3)CC2)C1 [Example 64, 3-(cyanomethyl)-N-methyl-3-(4-{[(1R,2S)-2-phenylcyclopropyl]amino}piperidin-1-yl)azetidine-1-sulfonamide] the pIC50 was ≥ 7.00.
For N#CCC1(N2CCC(N[C@@H]3C[C@H]3c3ccccc3)CC2)CN(S(N)(=O)=O)C1 [Example 65, 3-(cyanomethyl)-3-(4-{[(1R,2S)-2-phenylcyclopropyl]amino}piperidin-1-yl)azetidine-1-sulfonamide], the pIC50 was ≥ 7.00.
CN1CC(CC(=O)O)(N2CCC(N[C@@H]3C[C@H]3c3ccccc3)CC2)C1 [Example 66, [1-methyl-3-(4-{[(1R,2S)-2-phenylcyclopropyl]amino}piperidin-1-yl)azetidin-3-yl]acetic acid] was tested, and the pIC50 was ≥ 7.00.
CCN1CC(CC(=O)O)(N2CCC(N[C@@H]3C[C@H]3c3ccccc3)CC2)C1 [Example 67, [1-ethyl-3-(4-{[(1R,2S)-2-phenylcyclopropyl]amino}piperidin-1-yl)azetidin-3-yl]acetic acid] was tested, and the pIC50 was ≥ 7.00.
With CN(C)C(=O)CC1(N2CCC(N[C@@H]3C[C@H]3c3ccccc3)CC2)CCC1 [Example 68, N,N-dimethyl-2-[1-(4-{[(1R,2S)-2-phenylcyclopropyl]amino}piperidin-1-yl)cyclobutyl]acetamide] the pIC50 was ≥ 7.00.
With CNC(=O)CC1(N2CCC(N[C@@H]3C[C@H]3c3ccccc3)CC2)CCC1 [Example 69, N-methyl-2-[1-(4-{[(1R,2S)-2-phenylcyclopropyl]amino}piperidin-1-yl)cyclobutyl]acetamide] the pIC50 was ≥ 7.00.
